Assay results taken from patent US20230381157A1, “RIFABUTIN FOR THE TREATMENT OF ACINETOBACTER BAUMANNII” (University of Southern California, priority 2018, published 2023).
In brackets after ≈: the same amount, converted by molar mass. Several values for one entry are separate records, joined by “and”; a condition that tells them apart may be missing. Equal values may be shown once. Entries after “also recorded” stand apart in the source; their conditions may differ. Read-outs that look alike come from different tables or passages of the source.

How the values were obtained:
A. baumannii ATCC 17978 = test: IC50 dose response, inhibition of bacterial growth (BacTiter-Glo viability); format: cell-based, Acinetobacter baumannii; details: Acinetobacter baumannii, 11-point dose response
A. baumannii HUMC1 [1] = test: MIC, broth microdilution in MHII, RPMI or modified media; format: cell-based, Acinetobacter baumannii; details: for Rifabutin MIC: clinical isolate HUMC1
S. aureus LAC [2] = test: microbe, parasite or virus in culture; format: cell-based; details: Staphylococcus aureus
A. baumannii = format: cell-based, Acinetobacter baumannii
S. aureus LAC [3] = format: cell-based, Staphylococcus aureus; details: TSA
A. baumannii HUMC1 [4] = format: in vivo, mouse

`CO[C@H]1/C=C/O[C@@]2(C)Oc3c(C)c(O)c4c(c3C2=O)C2=NC3(CCN(CC(C)C)CC3)NC2=C(NC(=O)/C(C)=C\C=C\[C@H](C)[C@H](O)[C@@H](C)[C@@H](O)[C@@H](C)[C@H](OC(C)=O)[C@@H]1C)C4=O` [rifabutin] showed an IC50 (A. baumannii ATCC 17978; ATCC17978, 24 h, ATCC 17978, RPMI + 50% Serum) of less than 0.847 nM, an IC50 (A. baumannii ATCC 17978; ATCC17978, ATCC 17978, RPMI + 50% Serum) of less than 0.847 nM and an IC50 (A. baumannii ATCC 17978; ATCC17978, ATCC 17978, RPMI) of 24 nM. It also gave an MIC (A. baumannii HUMC1 [1]; Acinetobacter baumannii, HUMC1, HUMC1, 5 × RPMI) of less than 0.0625 µg/mL, an MIC (A. baumannii HUMC1 [1]; Acinetobacter baumannii, HUMC1, HUMC1, 10-30 kDa MHII Fraction spiked into RPMI) of 8 µg/mL (≈ 9.44 µM) and an MIC (A. baumannii HUMC1 [1]; Acinetobacter baumannii, HUMC1, HUMC1, 25° C., MHII) of 4 µg/mL (≈ 4.72 µM). It also gave an MIC (A. baumannii HUMC1 [1]; Acinetobacter baumannii, HUMC1, HUMC1, 25° C., RPMI) of less than 0.06 µg/mL, an MIC (A. baumannii HUMC1 [1]; Acinetobacter baumannii, HUMC1, HUMC1, <10 kDa MHII Fraction spiked into RPMI) of 8 µg/mL (≈ 9.44 µM) and an MIC (A. baumannii HUMC1 [1]; Acinetobacter baumannii, HUMC1, HUMC1, Low Salt Luria Broth) of 2 µg/mL. For the same compound, the MIC (A. baumannii HUMC1 [1]; Acinetobacter baumannii, HUMC1, HUMC1, Luria Broth) was 1 µg/mL (≈ 1.18 µM), the MIC (A. baumannii HUMC1 [1]; Acinetobacter baumannii, HUMC1, HUMC1, M9) was less than 0.05 µg/mL and the MIC (A. baumannii HUMC1 [1]; Acinetobacter baumannii, HUMC1, HUMC1, MHII (CAMHB)) was 4 µg/mL (≈ 4.72 µM). For the same compound, the MIC (A. baumannii HUMC1 [1]; Acinetobacter baumannii, HUMC1, HUMC1, MHII + 200 mg/L glucose) was 2 µg/mL, the MIC (A. baumannii HUMC1 [1]; Acinetobacter baumannii, HUMC1, HUMC1, MHII + 2,000 mg/L glucose) was 2 µg/mL and the MIC (A. baumannii HUMC1 [1]; Acinetobacter baumannii, HUMC1, HUMC1, MHII + Non-Essential Amino Acid Solution (100×)) was 3.12 µg/mL. For the same compound, the MIC (A. baumannii HUMC1 [1]; Acinetobacter baumannii, HUMC1, HUMC1, No Salt Luria Broth) was 1 µg/mL, the MIC (A. baumannii HUMC1 [1]; Acinetobacter baumannii, HUMC1, HUMC1, Non tissue culture treated 96-well plates) was 1.56 µg/mL (≈ 1.84 µM) and the MIC (A. baumannii HUMC1 [1]; Acinetobacter baumannii, HUMC1, HUMC1, RPMI + CCCP (2 μg/mL) + Essential Amino Acids) was 1.56 µg/mL. It also gave an MIC (A. baumannii HUMC1 [1]; Acinetobacter baumannii, HUMC1, HUMC1, RPMI + Essential Amino Acid Solution (50×)) of 1.56 µg/mL, an MIC (A. baumannii HUMC1 [1]; Acinetobacter baumannii, HUMC1, HUMC1, RPMI + Glutamic Acid 0.5 mM) of less than 0.048 µg/mL and an MIC (A. baumannii HUMC1 [1]; Acinetobacter baumannii, HUMC1, HUMC1, RPMI + Glycine 0.5 mM) of less than 0.048 µg/mL. The MIC (A. baumannii HUMC1 [1]; Acinetobacter baumannii, HUMC1, HUMC1, RPMI + L-Arginine 0.5 mM) was less than 0.048 µg/mL, the MIC (A. baumannii HUMC1 [1]; Acinetobacter baumannii, HUMC1, HUMC1, RPMI + L-Histidine 0.5 mM) was 1.56 µg/mL and the MIC (A. baumannii HUMC1 [1]; Acinetobacter baumannii, HUMC1, HUMC1, RPMI + L-Tryptophan 0.125 mM) was 1.56 µg/mL. For the same compound, the MIC (A. baumannii HUMC1 [1]; Acinetobacter baumannii, HUMC1, HUMC1, RPMI + Leucine 1 mM) was less than 0.048 µg/mL, the MIC (A. baumannii HUMC1 [1]; Acinetobacter baumannii, HUMC1, HUMC1, RPMI + Non-Essential Amino Acid Solution (100×)) was 0.781 µg/mL and the MIC (A. baumannii HUMC1 [1]; Acinetobacter baumannii, HUMC1, HUMC1, RPMI + Organic Layer, Proteinase K Digested) was 4 µg/mL. For the same compound, the MIC (A. baumannii HUMC1 [1]; Acinetobacter baumannii, HUMC1, HUMC1, RPMI + Organic layer, Sodium Periodate Treated) was 4 µg/mL, the MIC (A. baumannii HUMC1 [1]; Acinetobacter baumannii, HUMC1, HUMC1, RPMI + acetonitrile treated <10 kDa MHII fraction, Aqueous Layer) was less than 0.0312 µg/mL and the MIC (A. baumannii HUMC1 [1]; Acinetobacter baumannii, HUMC1, HUMC1, RPMI + acetonitrile treated <10 kDa MHII fraction, Organic Layer) was 4 µg/mL. For the same compound, the MIC (A. baumannii HUMC1 [1]; Acinetobacter baumannii, HUMC1, HUMC1, RPMI + efflux pump inhibitor CCCP (2 μg/mL)) was less than 0.05 µg/mL, the MIC (A. baumannii HUMC1 [1]; Acinetobacter baumannii, HUMC1, HUMC1, RPMI + efflux pump inhibitor thioridazine (16 μg/mL)) was 12.5 µg/mL and the MIC (A. baumannii HUMC1 [1]; Acinetobacter baumannii, HUMC1, HUMC1, RPMI Supplemented with MHII (hybrid media, equal parts)) was 8 µg/mL (≈ 9.44 µM). It also gave an MIC (A. baumannii HUMC1 [1]; Acinetobacter baumannii, HUMC1, HUMC1, Tissue culture treated 96-well plates) of 1.56 µg/mL (≈ 1.84 µM), an MIC (A. baumannii HUMC1 [1]; HUMC1, 5 × RPMI, listed as RBT) of 0.06 µg/mL (≈ 0.0708 µM) and an MIC (A. baumannii HUMC1 [1]; HUMC1, 10-30 kDa MHII Fraction spiked into RPMI, listed as RBT) of 8.00 µg/mL (≈ 9.44 µM). For the same compound, the “difference in MICs at lower temperature” value (A. baumannii HUMC1 [1]; HUMC1, 25° C. or 30° C. compared to 37° C., MHII or RPMI) was “did not observe any difference”, the MIC (A. baumannii HUMC1 [1]; HUMC1, 25° C., MHII, listed as RBT) was 4.00 µg/mL (≈ 4.72 µM) and the MIC (A. baumannii HUMC1 [1]; HUMC1, 25° C., RPMI, listed as RBT) was 0.05 µg/mL (≈ 0.059 µM). The MIC (A. baumannii HUMC1 [1]; HUMC1, <10 kDa MHII Fraction spiked into RPMI, listed as RBT) was 8 µg/mL and 8.00 µg/mL, the “effect of added iron on MIC” value (A. baumannii HUMC1 [1]; HUMC1, FeCl3 spiked into RPMI at 0.01, 0.10, and 0.30 μg/mL) was “did not have any effect” and the MIC (A. baumannii HUMC1 [1]; HUMC1, MHII (CAMHB in b45)) was 3.125 µg/mL (≈ 3.69 µM). For the same compound, the MIC (A. baumannii HUMC1 [1]; HUMC1, MHII (CAMHB in b45), listed as Rifabutin) was 3.125 µg/mL and 6.25 µg/mL, the MIC (A. baumannii HUMC1 [1]; HUMC1, MHII (CAMHB), listed as RBT) was 4.00 µg/mL and 6.25 µg/mL and the MIC (A. baumannii HUMC1 [1]; HUMC1, RPMI) was 0.0156 µg/mL (≈ 0.0184 µM). It also gave an MIC (A. baumannii HUMC1 [1]; HUMC1, RPMI + Glutamic Acid 0.5 mM, listed as RBT) of 0.05 µg/mL, an MIC (A. baumannii HUMC1 [1]; HUMC1, RPMI + Glycine 0.5 mM, listed as RBT) of 0.05 µg/mL and an MIC (A. baumannii HUMC1 [1]; HUMC1, RPMI + L-Arginine 0.5 mM, listed as RBT) of 0.05 µg/mL. For the same compound, the MIC (A. baumannii HUMC1 [1]; HUMC1, RPMI + Leucine 1 mM, listed as RBT) was 0.05 µg/mL, the MIC (A. baumannii HUMC1 [1]; HUMC1, RPMI + Non-Essential Amino Acid Solution (100×), listed as RBT) was 0.78 µg/mL and the MIC (A. baumannii HUMC1 [1]; HUMC1, RPMI + Organic Layer, Proteinase K Digested, listed as RBT) was 4.00 µg/mL. It also gave an MIC (A. baumannii HUMC1 [1]; HUMC1, RPMI + Organic layer, Sodium Periodate Treated, listed as RBT) of 4.00 µg/mL, an MIC (A. baumannii HUMC1 [1]; HUMC1, RPMI + acetonitrile treated <10 kDa MHII fraction, Aqueous Layer, listed as RBT) of 0.03 µg/mL and an MIC (A. baumannii HUMC1 [1]; HUMC1, RPMI + acetonitrile treated <10 kDa MHII fraction, Organic Layer, listed as RBT) of 4.00 µg/mL. The MIC (A. baumannii HUMC1 [1]; HUMC1, RPMI + efflux pump inhibitor CCCP (2 μg/mL), listed as RBT) was 0.05 µg/mL, the MIC (A. baumannii HUMC1 [1]; HUMC1, RPMI Supplemented with MHII (hybrid media, equal parts)) was 8 µg/mL (≈ 9.44 µM) and the MIC (A. baumannii HUMC1 [1]; HUMC1, RPMI Supplemented with MHII (hybrid media, equal parts), listed as RBT) was 8.00 µg/mL (≈ 9.44 µM). The “fold lower MIC of RBT as compared to RIF” value (A. baumannii HUMC1 [1]; HUMC1, RPMI, listed as RBT) was 133 fold and 200 fold, the Rifabutin MIC (A. baumannii HUMC1 [1]; MHII) was 3.12 µg/mL and the Rifabutin MIC (A. baumannii HUMC1 [1]; RPMI) was 0.0156 µg/mL. The MIC (S. aureus LAC [2]; MHII) was 0.012 µg/mL (≈ 0.0142 µM), the MIC (S. aureus LAC [2]; RPMI) was 0.025 µg/mL (≈ 0.0295 µM) and the “Mutation Frequency” value (A. baumannii; A. baumannii ABNIH1, MHII) was 8.85E−09. The “Mutation Frequency” value (A. baumannii; A. baumannii ABNIH1, TSA) was 5.95E−09, the “Mutation Frequency” value (A. baumannii; A. baumannii ATCC17978, MHII) was 5.72E−09 and the “Mutation Frequency” value (A. baumannii; A. baumannii ATCC17978, TSA) was 8.49E−10. The “Mutation Frequency” value (A. baumannii; A. baumannii HUMC1, MHII) was 2.20E−09, the “Mutation Frequency” value (A. baumannii; A. baumannii HUMC1, TSA) was 1.28E−08 and the “Mutation Frequency” value (A. baumannii; A. baumannii LAC-4, MHII) was 1.29E−08. The “Mutation Frequency” value (A. baumannii; A. baumannii LAC-4, TSA) was 7.41E−09, the “Mutation Frequency” value (S. aureus LAC [3]) was 1.10E−07 and the survival (A. baumannii HUMC1 [4]; IV infection, 10 mg/kg/day for 3 days, oral gavage, 10 mg/kg/day) was “improved survival”. For the same compound, the CFUs in blood (A. baumannii HUMC1 [4]; IV infection, 10 mg/kg/day for 3 days, oral gavage, at 1 hr) was “significantly lower CFUs in the blood”, the CFUs in blood (A. baumannii HUMC1 [4]; IV infection, 10 mg/kg/day for 3 days, oral gavage, at 24 hrs, 10 mg/kg/day) was “significantly lower CFUs in the lung” and the CFUs in blood (A. baumannii HUMC1 [4]; IV infection, 10 mg/kg/day for 3 days, oral gavage, at 24 hrs, listed as RBT, 10 mg/kg/day) was “significantly lower CFUs in the blood; also recorded: significantly reduced CFUs”. The survival (A. baumannii HUMC1 [4]; IV infection, 10 mg/kg/day for 3 days, oral gavage, listed as RBT, 10 mg/kg/day) was “significant improvement in survival; also recorded: significantly improved survival”, the “fully protective at fold lower dose than RIF” value (A. baumannii HUMC1 [4]; IV infection, RBT 0.1 or 0.3, RIF 10 or 30 mg/kg/daily for 3 days, printed 100X / 100×) was 100 and the survival (A. baumannii HUMC1 [4]; bacteremia model, 10 mg/kg for 3 days, 2 days post infection, PBS/control 0%) was “about 100%”. For the same compound, the protection (A. baumannii HUMC1 [4]; murine bacteremia, 0.1 mg/kg) was “fully protective”.
